Results: ChEMBL document CHEMBL1123685, “Synthesis and antiviral activity of various 3'-azido, 3'-amino, 2',3'-unsaturated, and 2',3'-dideoxy analogues of pyrimidine deoxyribonucleosides against retroviruses” (1987)

Experiments:
Type in all cases: functional
[1] = test system: Moloney murine leukemia virus; assay: In vitro inhibitory activity against Moloney murine leukemia virus (M-MULV) replication, a mammalian T-lymphotropic retrovirus; settings: read-out: ED50 (the source's name)
[2] = test system: Human immunodeficiency virus 1; assay: Activity against HTLV-III/LAV[…], was determined in vitro.; settings: read-out: ED50 (the source's name)
[3] = test system: Moloney murine leukemia virus; assay: Compound was tested against Moloney murine leukemia virus (M-MULV) in 3T3 cells, at a concentration of 10 uM; settings: NIH3T3

Structure (SMILES)	EC50 [1] [µM]	EC50 [2] [µM]	inhibition at 10 µM [3] [%]
Cc1cn([C@H]2C[C@H](N=[N+]=[N-])[C@@H](CO)O2)c(=O)nc1N	> 100		
O=c1ccn([C@H]2CC[C@@H](CO)O2)c(=O)[nH]1	> 100		
Cc1cn([C@H]2C[C@H](N)[C@@H](CO)O2)c(=O)[nH]c1=O [3-AMINO- 3-DEOXYTHYMIDINE]	42		
[N-]=[N+]=N[C@H]1C[C@H](n2cc(F)c(=O)[nH]c2=O)O[C@@H]1CO	> 100		
Nc1ccn([C@H]2CC[C@@H](CO)O2)c(=O)n1 [ZALCITABINE]	4		
[N-]=[N+]=N[C@H]1C[C@H](n2cc(Br)c(=O)[nH]c2=O)O[C@@H]1CO	1.5	2.3	
O=c1[nH]c(=O)n([C@H]2CC[C@@H](CO)O2)cc1I	> 100		
Cc1cn([C@H]2C[C@H](N)[C@@H](CN)O2)c(=O)[nH]c1=O	> 100		
[N-]=[N+]=N[C@H]1C[C@H](n2cc(C(F)(F)F)c(=O)[nH]c2=O)O[C@@H]1CO	> 100		
O=c1[nH]c(=O)n([C@H]2CC[C@@H](CO)O2)cc1Br	> 100		
N[C@H]1C[C@H](n2cc(C(F)(F)F)c(=O)[nH]c2=O)O[C@@H]1CO	> 100		
Cc1cn([C@H]2C[C@H](O)[C@@H](CN=[N+]=[N-])O2)c(=O)[nH]c1=O	> 100		
[N-]=[N+]=N[C@H]1C[C@H](n2ccc(=O)[nH]c2=O)O[C@@H]1CO [NAVURIDINE]	52		
[N-]=[N+]=N[C@H]1C[C@H](n2cc(I)c(=O)[nH]c2=O)O[C@@H]1CO	3		
[N-]=[N+]=N[C@H]1C[C@H](n2cc(F)c(N)nc2=O)O[C@@H]1CO	> 100		
[N-]=[N+]=N[C@H]1C[C@H](n2ccc(N)nc2=O)O[C@@H]1CO	58		
Cc1cn([C@H]2C[C@H](N=[N+]=[N-])[C@@H](CO)O2)c(=O)[nH]c1=O [ZIDOVUDINE]	0.02	0.23	
O=c1[nH]c(=O)n([C@H]2CC[C@@H](CO)O2)cc1/C=C/Br	> 100		
Cc1cn([C@H]2C[C@H](O)[C@@H](CN)O2)c(=O)[nH]c1=O	> 100		
Cc1cn([C@H]2CC[C@@H](CO)O2)c(=O)[nH]c1=O	> 100		50
Cc1cn([C@H]2C[C@H](N=[N+]=[N-])[C@@H](CN=[N+]=[N-])O2)c(=O)[nH]c1=O	17		
Cc1cn([C@H]2C=C[C@@H](CO)O2)c(=O)[nH]c1=O [STAVUDINE]	2.5		
O=c1ccn([C@H]2C=C[C@@H](CO)O2)c(=O)[nH]1	> 100		
Nc1ccn([C@H]2C=C[C@@H](CO)O2)c(=O)n1	3.7		
